≈ marks a conversion by molar mass, not a printed value. Values belong to the molecule of their own block, whether it stands above or below them.
Experiments:
Assay in all cases: In vitro antibacterial evaluation: minimum inhibitory concentration (MIC), broth dilution method
Assay type in all cases: cell-based
Conditions in all cases: 18 hours at 35° C.
Enterococcus sp. = test system: Enterococcus sp.
How it was run: (§1)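 Broth dilution per NCCLS M7-A2 in Muller-Hinton II […], inoculum 5×10^5 CFU/mL, antibiotic tested over 64-0.06 μg/mL. MIC is taken as the lowest concentration that inhibits growth. Panel includes recent clinical isolates resistant to methicillin, penicillin and/or vancomycin.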

Staphylococcus sp. = test system: Staphylococcus sp.
How it was run: as §1

Escherichia coli = test system: Escherichia coli
How it was run: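 Values are minimum inhibitory concentrations, meaning the smallest antibiotic concentration that stops growth of the organism. They come from broth dilution in Muller-Hinton II […] per NCCLS guidance (M7-A2), using 5×10^5 CFU/mL and concentrations from 64 to 0.06 μg/mL.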

Streptococcus sp. = test system: Streptococcus sp.
How it was run: as §1

[1] = Enterococcus faecalis (GC 2242)
[2] = Enterococcus faecalis (GC 2691)
[3] = Enterococcus faecalis (GC 3059)
[4] = broth dilution, inoculum 5×10^5 CFU/mL
[5] = Streptococcus agalactiae (GC 4564)
[6] = Streptococcus pneumoniae (ATCC 6301)
[7] = Streptococcus pneumoniae (GC 1894)
[8] = Streptococcus pneumoniae (GC 4565)
[9] = Streptococcus pyogenes (GC 4563)

- MIC Enterococcus avium (GC 4558) (Enterococcus sp.): 4 µg/mL (≈ 2.73 µM)
- MIC Enterococcus faecalis (ATCC 29212) (Enterococcus sp.): 16 µg/mL (≈ 10.9 µM)
- MIC Enterococcus faecalis (GC 2242) (Enterococcus sp.; [1]): 16 µg/mL (≈ 10.9 µM)
- MIC Enterococcus faecalis (GC 2691) (Enterococcus sp.; [2]): 8 µg/mL (≈ 5.46 µM)
- MIC Enterococcus faecalis (GC 3059) (Enterococcus sp.; [3]): 8 µg/mL (≈ 5.46 µM)
- MIC Enterococcus faecalis (GC 4552) (Enterococcus sp.): 16 µg/mL (≈ 10.9 µM)
- MIC Enterococcus faecalis (GC 4553) (Enterococcus sp.): 16 µg/mL (≈ 10.9 µM)
- MIC Enterococcus faecalis (GC 4554) (Enterococcus sp.): 16 µg/mL (≈ 10.9 µM)
- MIC Enterococcus faecalis (GC 6189) (Enterococcus sp.): 8 µg/mL (≈ 5.46 µM)
- MIC Enterococcus faecium (GC 2243) (Enterococcus sp.): 16 µg/mL (≈ 10.9 µM)
- MIC Enterococcus faecium (GC 4556) (Enterococcus sp.): 16 µg/mL (≈ 10.9 µM)
- MIC Enterococcus faecium (GC 4557) (Enterococcus sp.): 2 µg/mL (≈ 1.36 µM)
- MIC Enterococcus faecalis (GC 2242) (Enterococcus sp.; [4]): 16 µg/mL (≈ 10.9 µM)
- MIC Enterococcus faecalis (GC 2691) (Enterococcus sp.; [4]): 8 µg/mL (≈ 5.46 µM)
- MIC Enterococcus faecalis (GC 3059) (Enterococcus sp.; [4]): 8 µg/mL (≈ 5.46 µM)
- MIC Coagulase Negative Staphylococcus (GC 4547) (Staphylococcus sp.): 4 µg/mL (≈ 2.73 µM)
- MIC Coagulase Negative Staphylococcus (GC 4548) (Staphylococcus sp.): 2 µg/mL (≈ 1.36 µM)
- MIC Coagulase Negative Staphylococcus (GC 4549) (Staphylococcus sp.): 2 µg/mL (≈ 1.36 µM)
- MIC Coagulase Negative Staphylococcus (GC 4551) (Staphylococcus sp.): 2 µg/mL (≈ 1.36 µM)
- MIC Coagulase Negative Staphylococcus (GC 6257) (Staphylococcus sp.): 2 µg/mL (≈ 1.36 µM)
- MIC Staphylococcus aureus (ATCC 29213) (Staphylococcus sp.): 4 µg/mL (≈ 2.73 µM)
- MIC Staphylococcus aureus (GC 1131) (Staphylococcus sp.): 4 µg/mL (≈ 2.73 µM)
- MIC Staphylococcus aureus (GC 3051) (Staphylococcus sp.): 0.5 µg/mL (≈ 0.341 µM)
- MIC Staphylococcus aureus (GC 3053) (Staphylococcus sp.): 4 µg/mL (≈ 2.73 µM)
- MIC Staphylococcus aureus (GC 4541) (Staphylococcus sp.): 1 µg/mL (≈ 0.682 µM)
- MIC Staphylococcus aureus (GC 4542) (Staphylococcus sp.): 2 µg/mL (≈ 1.36 µM)
- MIC Staphylococcus aureus (GC 4544) (Staphylococcus sp.): 4 µg/mL (≈ 2.73 µM)
- MIC Staphylococcus aureus (GC 4545) (Staphylococcus sp.): 4 µg/mL (≈ 2.73 µM)
- MIC Staphylococcus aureus-SMITH (GC 4543) (Staphylococcus sp.): 2 µg/mL (≈ 1.36 µM)
- MIC Escherichia coli (GC 4560) (Escherichia coli): 2 µg/mL (≈ 1.36 µM)
- MIC Streptococcus agalactiae (GC 4564) (Streptococcus sp.; [5]): 0.5 µg/mL (≈ 0.341 µM)
- MIC Streptococcus pneumoniae (ATCC 6301) (Streptococcus sp.; [6]): <0.12 µg/mL
- MIC Streptococcus pneumoniae (GC 1894) (Streptococcus sp.; [7]): <0.12 µg/mL
- MIC Streptococcus pneumoniae (GC 4565) (Streptococcus sp.; [8]): 0.25 µg/mL (≈ 0.171 µM)
- MIC Streptococcus pyogenes (GC 4563) (Streptococcus sp.; [9]): 0.5 µg/mL (≈ 0.341 µM)
- MIC Streptococcus agalactiae (GC 4564) (Streptococcus sp.; [4]): 0.5 µg/mL (≈ 0.341 µM)
- MIC Streptococcus pneumoniae (ATCC 6301) (Streptococcus sp.; [4]): <0.12 µg/mL
- MIC Streptococcus pneumoniae (GC 1894) (Streptococcus sp.; [4]): <0.12 µg/mL
- MIC Streptococcus pneumoniae (GC 4565) (Streptococcus sp.; [4]): 0.25 µg/mL (≈ 0.171 µM)
- MIC Streptococcus pyogenes (GC 4563) (Streptococcus sp.; [4]): 0.5 µg/mL (≈ 0.341 µM)
SMILES: COc1ccc(COCC2OC(OC3C(CO)OC(Oc4ccc(CC5NC(=O)C(C(C)c6ccccc6)NC(=O)CNC(=O)C(CO)NC(=O)C(C(O)C6CNC(=N)N6C6OC(CO)C(O)C(O)C6O)NC(=O)C(C(O)C6CNC(=N)N6)NC5=O)cc4)C(O)C3O)C(O)C(O)C2O)c2ccccc12 (stereo not drawn) [Example 240, Cyclo[glycyl-β-methylphenylalanyl-O-[4-O-[6-O-[(4-methoxy-1-naphthyl)methyl]hexo-pyranosyl]hexopyranosyl]tyrosyl-3-(2-iminoimidazolidin-4-yl)seryl-3-(3-hexopyranosyl-2-iminoimidazolidin-4-yl)serylseryl]]
- MIC Staphylococcus haemolyticus (GC 4546) (Staphylococcus sp.): 2 µg/mL (≈ 1.36 µM)

- MIC Enterococcus avium (GC 4558) (Enterococcus sp.): 4 µg/mL (≈ 2.69 µM)
- MIC Enterococcus faecalis (ATCC 29212) (Enterococcus sp.): 4 µg/mL (≈ 2.69 µM)
- MIC Enterococcus faecalis (GC 2242) (Enterococcus sp.; [1]): 4 µg/mL (≈ 2.69 µM)
- MIC Enterococcus faecalis (GC 2691) (Enterococcus sp.; [2]): 4 µg/mL (≈ 2.69 µM)
- MIC Enterococcus faecalis (GC 3059) (Enterococcus sp.; [3]): 2 µg/mL (≈ 1.34 µM)
- MIC Enterococcus faecalis (GC 4552) (Enterococcus sp.): 4 µg/mL (≈ 2.69 µM)
- MIC Enterococcus faecalis (GC 4553) (Enterococcus sp.): 4 µg/mL (≈ 2.69 µM)
- MIC Enterococcus faecalis (GC 4554) (Enterococcus sp.): 4 µg/mL (≈ 2.69 µM)
- MIC Enterococcus faecalis (GC 6189) (Enterococcus sp.): 2 µg/mL (≈ 1.34 µM)
- MIC Enterococcus faecium (GC 2243) (Enterococcus sp.): 4 µg/mL (≈ 2.69 µM)
- MIC Enterococcus faecium (GC 4556) (Enterococcus sp.): 4 µg/mL (≈ 2.69 µM)
- MIC Enterococcus faecium (GC 4557) (Enterococcus sp.): 2 µg/mL (≈ 1.34 µM)
- MIC Enterococcus faecalis (GC 2242) (Enterococcus sp.; [4]): 4 µg/mL (≈ 2.69 µM)
- MIC Enterococcus faecalis (GC 2691) (Enterococcus sp.; [4]): 4 µg/mL (≈ 2.69 µM)
- MIC Enterococcus faecalis (GC 3059) (Enterococcus sp.; [4]): 2 µg/mL (≈ 1.34 µM)
- MIC Coagulase Negative Staphylococcus (GC 4547) (Staphylococcus sp.): 2 µg/mL (≈ 1.34 µM)
- MIC Coagulase Negative Staphylococcus (GC 4548) (Staphylococcus sp.): 1 µg/mL (≈ 0.672 µM)
- MIC Coagulase Negative Staphylococcus (GC 4549) (Staphylococcus sp.): 2 µg/mL (≈ 1.34 µM)
- MIC Coagulase Negative Staphylococcus (GC 4551) (Staphylococcus sp.): 4 µg/mL (≈ 2.69 µM)
- MIC Coagulase Negative Staphylococcus (GC 6257) (Staphylococcus sp.): 2 µg/mL (≈ 1.34 µM)
- MIC Staphylococcus aureus (ATCC 29213) (Staphylococcus sp.): 2 µg/mL (≈ 1.34 µM)
- MIC Staphylococcus aureus (GC 1131) (Staphylococcus sp.): 2 µg/mL (≈ 1.34 µM)
- MIC Staphylococcus aureus (GC 3051) (Staphylococcus sp.): 2 µg/mL (≈ 1.34 µM)
- MIC Staphylococcus aureus (GC 3053) (Staphylococcus sp.): 2 µg/mL (≈ 1.34 µM)
- MIC Staphylococcus aureus (GC 4541) (Staphylococcus sp.): 2 µg/mL (≈ 1.34 µM)
- MIC Staphylococcus aureus (GC 4542) (Staphylococcus sp.): 2 µg/mL (≈ 1.34 µM)
- MIC Staphylococcus aureus (GC 4544) (Staphylococcus sp.): 2 µg/mL (≈ 1.34 µM)
- MIC Staphylococcus aureus (GC 4545) (Staphylococcus sp.): 2 µg/mL (≈ 1.34 µM)
- MIC Staphylococcus aureus-SMITH (GC 4543) (Staphylococcus sp.): 2 µg/mL (≈ 1.34 µM)
- MIC Escherichia coli (ATCC 25922) (Escherichia coli; Escherichia coli (ATCC 25922)): >64 µg/mL
- MIC Escherichia coli (GC 4559) (Escherichia coli; Escherichia coli (GC 4559)): >64 µg/mL
- MIC Escherichia coli (GC 4560) (Escherichia coli): 2 µg/mL (≈ 1.34 µM)
- MIC Streptococcus agalactiae (GC 4564) (Streptococcus sp.; [5]): <0.06 µg/mL
- MIC Streptococcus pneumoniae (ATCC 6301) (Streptococcus sp.; [6]): <0.06 µg/mL
- MIC Streptococcus pneumoniae (GC 1894) (Streptococcus sp.; [7]): <0.06 µg/mL
- MIC Streptococcus pneumoniae (GC 4565) (Streptococcus sp.; [8]): <0.06 µg/mL
- MIC Streptococcus pyogenes (GC 4563) (Streptococcus sp.; [9]): <0.06 µg/mL
- MIC Streptococcus agalactiae (GC 4564) (Streptococcus sp.; [4]): <0.06 µg/mL
- MIC Streptococcus pneumoniae (ATCC 6301) (Streptococcus sp.; [4]): <0.06 µg/mL
- MIC Streptococcus pneumoniae (GC 1894) (Streptococcus sp.; [4]): <0.06 µg/mL
- MIC Streptococcus pneumoniae (GC 4565) (Streptococcus sp.; [4]): <0.06 µg/mL
- MIC Streptococcus pyogenes (GC 4563) (Streptococcus sp.; [4]): <0.06 µg/mL
SMILES: CC(c1ccccc1)C1NC(=O)CNC(=O)C(CO)NC(=O)C(C(O)C2CNC(=N)N2C2OC(CO)C(O)C(O)C2O)NC(=O)C(C(O)C2CNC(=N)N2)NC(=O)C(Cc2ccc(OC3OC(CO)C(OC4OC(COCC=C(c5ccccc5)c5ccccc5)C(O)C(O)C4O)C(O)C3O)cc2)NC1=O (stereo not drawn) [Example 241, Cyclo[glycyl-β-methylphenylalanyl-O-[4-O-[6-O-[3,3-diphenylprop-2-en-1-yl)hexopyranosyl]-hexopyranosyl]tyrosyl-3-(2-iminoimidazolidin-4-yl)seryl-3-(3-hexopyranosyl-2-iminoimidazolidin-4-yl)serylseryl]]
- MIC Staphylococcus haemolyticus (GC 4546) (Staphylococcus sp.): 2 µg/mL (≈ 1.34 µM)

Reference: patent US8247211B2, “Glycopeptide antibiotics” (American Cyanamid Company, priority 2001, dated 2012)
